According to patent publication US20030144347A1, “Method for treating autoimmune disease” (priority 2001, published 2003):

Columns and labels:
[1] = system: animal model of kindled epilepsy; settings: cited from earlier work
[2] = system: patient with rapid mood swings and severe intense itching; experiment: Case report: patient with rapid mood swings and severe intense itching; type: in vivo, human; settings: Example 19; 12.5 mg at bedtime increased weekly until 50 mg
Experimental: A patient presented with rapid mood swings and a complaint of severe intense itching from clothing tags and some clothing, which began over twenty years ago. They were begun on gabapenten which was increased to 300 mg qid. […] Their itching was unchanged. They were begun on Topamax 12.5 mg at bedtime which was increased weekly by 12.5 mg until 50 mg.

[3] = system: patient suffering from ulcerative colitis; experiment: Case reports: patients suffering from ulcerative colitis; type: in vivo, human; settings: Example 9
Experimental: A patient suffering from ulcerative colitis began taking 25 mg per day of topiramate, with dosage increases of 25 mg/day each week. […] By the end of nine months, the patient's weight was decreased to 270 lbs from 315 lbs. Their disease was no longer affecting their ability to go to or stay at work. Their colonoscopy exam was negative for the first time since the onset of their illness.

[4] = system: patient suffering from psoriasis; experiment: Case reports: patients suffering from psoriasis; type: in vivo, human
Experimental: A patient suffering from psoriasis began taking 15 mg per day of topiramate for seven days, which was increased by 15 mg per day until reaching a dose of 45 mg/day in equally divided doses.

[5] = system: rodent models of epilepsy; settings: several rodent models of epilepsy; cited from earlier work
[6] = system: patient with eosinophilic gastroenteritis; experiment: Case report: patient with recurrent eosinophilic gastroenteritis; type: in vivo, human; settings: Example 20; 7.5 mg every three days then 7.5 mg every other day; withdrawn from prednisone
Experimental: A patient presented depressed related to a 15 pound weight gain following a recurrent of eosinophilic gastroenteritis treated with 20 mg of prednisone. This was their third bout in two years, all confirmed by a stomach biopsy. Each recurrence began between four and five months after being withdrawn from steroids, which had caused physical side effects and suspiciousness. A trial of Topamax 7.5 mg every three days and then 7.5 mg every other day was begun.

[7] = system: patient suffering from psoriatic arthritis; experiment: Case reports: patients suffering from psoriatic arthritis; type: in vivo, human
Experimental: A patient suffering from psoriatic arthritis began taking 15 mg per day of topiramate. […] When the dose was increased slightly to 25 mg twice a day, the patient realized they were experiencing minimal pain and resumed garden work using a rototiller for the first time in two years. These benefits have continued for more than five months at this dose. […] This has continued for more than ten months. A patient suffering from psoriatic arthritis began taking 25 mg per day of topiramate. The dosage was increased each week until […] was achieved. […] The patient was stabilized at 25 mg, twice a day, for convenience. Their benefits from topiramate have continued for almost five months.

[8] = system: patient suffering from rheumatoid arthritis; experiment: Case reports: patients suffering from rheumatoid arthritis; type: in vivo, human
Experimental: A patient suffering from rheumatoid arthritis was administered 25 mg per day of topiramate with an increase every 10 days by 25 mg until 25 mg, 3 times per day, was achieved. The patient previously took 3 or 4 tablets per day of lortab, seven 2.5 mg tablets of methotrexate once a week, 200 mg per day of minocycline and 10 mg per day of prednisone.
An adolescent patient suffering from rheumatoid arthritis began taking 15 mg per day of topiramate for one week, which was then increased by 15 mg weekly until 45 mg per day, in three divided dosages of 15 mg each, was reached. The patient previously took 3 to 5 mg of prednisone daily.
A patient suffering from rheumatoid arthritis with a positive rheumatic factor about 3 decades earlier, at which time they also experienced polyarthritis and Renaud's phenomena, was treated with prednisone 40 mg per day for six months and was then weaned off the prednisone after one year. In the ensuing years, psoriasis developed on both elbows which was worse in the winter. They were an avid golfer and experienced painful swelling and stiffness of both wrists and hands, especially the left, and back pain and stiffness. […] They were begun on Topamax 15 mg a day which was increased weekly by 15 mg until 45 mg per day was taken in divided doses.

[9] = system: patient suffering from multiple autoimmune diseases; experiment: Case report: patient suffering from multiple autoimmune diseases; type: in vivo, human; settings: Example 15
Experimental: A patient suffering from multiple autoimmune diseases was treated with topiramate. The patient was suffering from systemic lupus erythematosis (SLE) acquired anemia of gamma globulins, rheumatoid arthritis, Renaud's phenomena and Hashimotos thyroiditis. The patient was also taking medrol at doses of 32 mg per day and up to 132 mg per day and 25 mg weekly injections of methotrexate.
The topiramate treatment was begun at 15 mg per day and increased weekly by 15 mg to […] and then stabilized at 50 mg per day after two months. […] The frequency and intensity of their iritis, which was occurring every one to two months and lasting for 1 to 2 weeks, described as an “incredible pain relieved only by wrapping my eyes and head with a black towel”, decreased. It has occurred only once since using Topamax® when their parent was dying. […] The patient drove to their last appointment, which is the first time they have been able to do so in five years. They have now had consistent benefits for more than 6 months.

[10] = Example 6, 25 mg per day, 4 weeks

## CC1(C)O[C@@H]2[C@@H](CO[C@@]3(COS(N)(=O)=O)OC(C)(C)O[C@@H]23)O1 [topiramate, 2,3:4,5-bis-O-(1-methylethylidence)-β-D-fructopyranose sulfamate]
[1]
  seizures: effectively block seizures
[2]
  itching: no itching at all
  mood: true stabilization of my mood
[3]
  colonoscopy exam: negative
[3]; 50 mg twice a day
  symptoms: decreased intensity of symptoms
[3]; 75 mg twice a day
  symptoms: decreased frequency of symptoms
[3]; 100 mg twice a day, asakol dosage reduced
  diarrhea: diarrhea had stopped
[4]; Example 12
  time at which PASI decrease was maintained: 16 weeks
[4]; Example 12, 25 mg bid, within 8 weeks, from 12.2
  psoriasis area and severity index (PASI): 5.4
[4]; Example 12, after 10 days at 45 mg
  lesions: began to decrease
[4]; Example 16, 15 mg every other day
  lesions: minimal improvement
[4]; Example 16, 15 mg per day for 7 days
  lesions: some improvement
[4]; Example 16, 30 mg/day in divided dosages
  lesions: began to get worse
[4]; Example 16, 45 mg/day in divided doses
  lesions: clear deterioration
[4]; Example 16, 60 mg per day
  lesions: new lesions were occurring
[4]; Example 16, within the first eight weeks, judged to be unchanged
  PASI: 29.1
[5]
  seizures: effectively block seizures
[6]
  time without recurrence of symptoms: 19 months
[7]; Example 5, 15 mg every morning and 30 mg every evening, after one month
  getting out of bed: able to more easily get out of bed
[7]; Example 5, 15 mg twice per day
  skin lesions and joint pain: some improvement in skin lesions and decreased joint pain
[7]; Example 5, 25 mg twice a day
  duration of benefits: more than five
  pain: minimal pain
[7]; Example 6, 7.5 mg twice a day
  duration of improvement: more than ten
[7]; [10]
  adverse effect: severe lethargy
  middle knuckle swelling: significant reduction and almost total disappearance
[7]; Example 6, dose reduced to 7.5 mg twice a day
  course of improvement: improvement continued
[7]; Example 7, 25 mg, twice a day
  duration of benefits: five
[7]; Example 7, 45 mg per day
  pain and mobility: significant decrease in pain and greater mobility
[8]; Example 3
  duration of benefit: 15 weeks
[8]; Example 3, 25 mg, 3 times per day
  mobility: increased mobility
[8]; Example 3, 25 mg, 3 times per day, lortab and minocycline discontinued, prednisone and methotrexate reduced
  pain (patient reported): significant decrease in pain
[8]; Example 4, adolescent patient, 15 mg twice a day
  decrease in pain: 40-50%
[8]; Example 4, adolescent patient, 45 mg per day
  reduction in pain: 70%
[8]; Example 4, prednisone decreased to 0.5 mg/day
  duration of benefits: four
[8]; Example 17, 45 mg per day in divided doses
  psoriasis: improvement in their psoriasis
[8]; Example 17, 45 mg per day in divided doses, decreased from 6
  joint pain in both hands, self-rating scale of 0 to 10: 2
[9]
  time without another episode of iritis: five
[9]; 50 mg per day
  frequency and intensity of iritis: decreased
[9]; despite cessation of methotrexate
  duration of consistent benefits: more than 6 months
[9]; up to 65 mg per day, stabilized at 50 mg per day, medrol reduced to 5 mg per day
  pain when walking: very significant decrease in pain when walking
